Source: US7402559B2, “Composition and method of treatment for urogenital conditions” (MSH Pharma, Incorporated, priority 1999, dated 2008)
Bridge positions count the residues as written; N and C are the ends. Ends that are not written are not given here. I, II: the chains in the order shown.

Tests used:
[1] = tested on: S. aureus (ATCC 29213); assay: S. aureus colony formation (viability); type: cell-based, Staphylococcus aureus; conditions: FIG. 1; significant at peptide concentrations of 10^−12 to 10^−4 M; 2 h at 37° C.
Experimental: Cultures of S. aureus (ATCC 29213) were obtained from the collection of the Department of Microbiology, Ospedale Maggiore di Milano. […] Cells were then washed in cold distilled water and diluted with HBSS to a concentration of 100 organisms/ml. One-milliliter aliquots were dispensed on blood agar plates and incubated for 24 hours at 37° C. Viability of the microorganisms was estimated from the colonies formed. In another set of experiments, 500 units of urokinase, a S. aureus growth enhancer, were also incubated with the bacteria (10^5/100 ml ) for four hours at 37° C. in a shaking water bath together with the peptides.

[2] = tested on: C. albicans; assay: C. albicans colony formation (CFU viability); type: cell-based, Candida albicans; conditions: FIG. 3; 10^−12 to 10^−4 M; p<0.01 vs. control
Experimental: Clinical isolates of C. albicans were obtained from the collection of the Department of Microbiology, Ospedale Maggiore di Milano. Cultures of C. albicans were maintained on Sabouraud's agar slants and periodically transferred to Sabouraud's agar plates and incubated for 48 hours at 28° C. To prepare stationary growth-phase yeast, a colony was taken from the agar plate, transferred into 30 ml of Sabouraud-dextrose broth, and incubated for 72 hours at 32° C. Cells were centrifuged at 1000× g for ten minutes, and the pellet was washed twice with distilled water. Cells were counted and suspended in Hank's balanced salt solution (“HBSS”) to the desired concentration.
Cells were then washed in cold distilled water and diluted with HBSS to a concentration of 100 organisms/ml. One-milliliter aliquots were then dispensed on blood agar plates and incubated for 48 hours at 37° C. The organism's viability was estimated from the number of colonies formed.
[…] The effects of forskolin and ddAdo on the ability of C. albicans to form colonies were determined according to the procedures described in Example II.

[3] = tested on: C. albicans; assay: Candida CFU, CKPV dimer versus KPV: C. albicans; type: cell-based; conditions: FIG. 17; same molarity (10^−4 M)
Experimental: (§1) C. albicans, C. glabrata. and C. krusei (clinical isolates) were obtained from the collection of the laboratory of Microbiology, Ospedale Maggiore di Milano. Six different isolates for each yeast strain were used. Candida Sp. cells were maintained on Sabouraud's agar slants and periodically transferred to Sabouraud's agar plates and incubated for 48 h at 28° C. To prepare stationary growth phase yeast, a colony was taken from the agar plates and transferred into 5 ml Sabouraud-dextrose broth and incubated for 48 h at 32° C. Cells were centrifuged at 1,000× g for 10 minutes and the pellet was washed twice with distilled water. Cells were counted and suspended in distilled water to obtain 10^7 yeast cells/ml. Viability, determined by the exclusion of 0.01% methylene blue, remained >98%.
(§2) Control tubes received 100 μl of distilled water. All the tests were run in triplicate. After 2 h incubation at 37° C., yeast suspension from each vial was diluted with distilled water to obtain approximately 100 organisms/ml. One milliliter aliquots from each tube were dispensed on blood agar plates and incubated for 48 h at 37° C. to count CFUs. Organism viability was estimated from the number of CFUs in each plate. Only experiments in which CFUs in control plates were between 80 and 120 with a variability in counts less than 10% were used to evaluate effects of the peptides. […]

[4] = tested on: C. krusei; assay: Candida CFU, CKPV dimer versus KPV: C. krusei; type: cell-based; conditions: FIG. 18; same molarity (10^−4 M)
Experimental: as §1, §2

[5] = tested on: C. glabrata; assay: Candida CFU, CKPV dimer versus KPV: C. glabrata; type: cell-based; conditions: FIG. 19; same molarity (10^−4 M)
Experimental: as §1, §2

“VPKC-s-s-CKPV (disulfide I:1-II:1; not fully specified (N-terminus, C-terminus)) [CKPV dimer]” was tested, and the “S. aureus colony formation” value [1] was “inhibited”, the “ability of C albicans to form colonies” value [2] was “greatly reduced” and the “effectiveness relative to KPV monomer, C. albicans” value [3] was “more than twice as effective”. The “effectiveness relative to KPV monomer, C. krusei” value [4] was “more than twice as effective” and the “effectiveness relative to KPV monomer, C. glabrata” value [5] was “more than twice as effective”.
